Values of other authors, collected in US8110226B2, “Drug formulations having inert sealed cores” (Mylan Pharmaceuticals Inc., priority 2007, dated 2012).

Conditions: first pKa of non-polymeric pH modifying acid

CC(O)C(=O)O (stereo not shown) [Lactic Acid]
pKa: 4.14
